Source: patent US8338465B2, “Cyclic carboxylic acid rhodanine derivatives for the treatment and prevention of tuberculosis” (priority 2006, dated 2012)

Target: T1, dihydrolipoamide acyltransferase (DlaT) (Mycobacterium tuberculosis, UniProt P9WIS7)
T1 sequence (P9WIS7 1-553): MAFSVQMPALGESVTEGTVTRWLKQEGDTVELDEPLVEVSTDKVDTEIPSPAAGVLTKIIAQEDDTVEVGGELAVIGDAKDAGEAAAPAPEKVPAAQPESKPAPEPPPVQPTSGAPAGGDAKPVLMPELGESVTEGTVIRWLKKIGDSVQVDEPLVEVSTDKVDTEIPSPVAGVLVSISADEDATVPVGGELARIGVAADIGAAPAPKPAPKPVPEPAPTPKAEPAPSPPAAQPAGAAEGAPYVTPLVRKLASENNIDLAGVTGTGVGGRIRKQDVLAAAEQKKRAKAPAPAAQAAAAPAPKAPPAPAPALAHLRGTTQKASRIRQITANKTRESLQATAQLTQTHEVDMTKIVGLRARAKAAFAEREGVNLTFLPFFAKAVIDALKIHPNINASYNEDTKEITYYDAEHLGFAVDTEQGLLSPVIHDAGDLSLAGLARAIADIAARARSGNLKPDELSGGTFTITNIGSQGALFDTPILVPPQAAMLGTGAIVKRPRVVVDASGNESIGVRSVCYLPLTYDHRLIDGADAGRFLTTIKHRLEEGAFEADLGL
Test: DlaT inhibition (Dlat IC50); DTNB peroxidase assay with Lpd, DlaT and AhpD
Format: biochemical
Settings: Dlat IC50 category

O=C(O)c1ccccc1NN1C(=O)C(=Cc2ccc(-c3cccc(C(F)(F)F)c3)o2)SC1=S [Compound D3, 2-{4-oxo-2-thioxo-5-[1-[5-(3-trifluoromethyl-phenyl)-furan-2-yl]-methylidene]-thiazolidin-3-ylamino}-benzoic acid]
IC50: < 10 µM

O=C(O)c1ccccc1NN1C(=O)C(=Cc2ccc(-c3cccc([N+](=O)[O-])c3)o2)SC1=S [Compound D4, 2-{5-[1-[5-(3-nitro-phenyl)-furan-2-yl]-methylidene]-4-oxo-2-thioxo-thiazolidin-3-ylamino}-benzoic acid]
IC50: < 10 µM

CC(C)(C)c1ccc(O)c(-c2ccc(C=C3SC(=S)N(Nc4ccccc4C(=O)O)C3=O)o2)c1 [Compound D5, 2-{5-[1-[5-(5-tert-butyl-2-hydroxy-phenyl)-furan-2-yl]-methylidene]-4-oxo-2-thioxo-thiazolidin-3-ylamino}-benzoic acid]
IC50: < 10 µM

O=C(O)c1ccccc1NN1C(=O)C(=Cc2ccc(-c3ccc(F)cc3F)o2)SC1=S [Compound D7, 2-{5-[1-[5-(2,4-difluoro-phenyl)-furan-2-yl]-methylidene]-4-oxo-2-thioxo-thiazolidin-3-ylamino}-benzoic acid]
IC50: < 10 µM

Cc1ccc(-c2ccc(C=C3SC(=S)N(Nc4ccccc4C(=O)O)C3=O)o2)c(C)c1 [Compound D8, 2-{5-[1-[5-(2,4-dimethyl-phenyl)-furan-2-yl]-methylidene]-4-oxo-2-thioxo-thiazolidin-3-ylamino}-benzoic acid]
IC50: < 10 µM

COc1ccc(-c2ccc(C=C3SC(=S)N(Nc4ccccc4C(=O)O)C3=O)o2)c(C)c1 [Compound D9, 2-{5-[1-[5-(4-methoxy-2-methyl-phenyl)-furan-2-yl]-methylidene]-4-oxo-2-thioxo-thiazolidin-3-ylamino}-benzoic acid]
IC50: < 10 µM

Cc1cc(F)ccc1-c1ccc(C=C2SC(=S)N(Nc3ccccc3C(=O)O)C2=O)o1 [Compound D10, 2-{5-[1-[5-(4-fluoro-2-methyl-phenyl)-furan-2-yl]-methylidene]-4-oxo-2-thioxo-thiazolidin-3-ylamino}-benzoic acid]
IC50: < 10 µM

Cc1ccc(-c2ccc(C=C3SC(=S)N(Nc4ccccc4C(=O)O)C3=O)o2)c(F)c1 [Compound D11, 2-{5-[1-[5-(2-fluoro-4-methyl-phenyl)-furan-2-yl]-methylidene]-4-oxo-2-thioxo-thiazolidin-3-ylamino}-benzoic acid]
IC50: < 10 µM

O=C(O)c1ccccc1NN1C(=O)C(=Cc2ccc(-c3ccccc3O)o2)SC1=S [Compound D12, 2-{5-[1-[5-(2-Hydroxy-phenyl)-furan-2-yl]-methylidene]-4-oxo-2-thioxo-thiazolidin-3-ylamino}-benzoic acid]
IC50: < 10 µM

Cc1ccc(-c2ccc(C=C3SC(=S)N(Nc4ccccc4C(=O)O)C3=O)o2)cc1 [Compound D13, 2-{4-oxo-2-thioxo-5-[1-(5-p-tolyl-furan-2-yl)-methylidene]-thiazolidin-3-ylamino}-benzoic acid]
IC50: < 10 µM

COc1ccc(-c2ccc(C=C3SC(=S)N(Nc4ccccc4C(=O)O)C3=O)o2)cc1 [Compound D14, 2-{5-[1-[5-(4-methoxy-phenyl)-furan-2-yl]-methylidene]-4-oxo-2-thioxo-thiazolidin-3-ylamino}-benzoic acid]
IC50: < 10 µM

Cc1ccccc1-c1cccc(C=C2SC(=S)N(Nc3ccccc3C(=O)O)C2=O)n1 [Compound D15, 2-[4-Oxo-2-thioxo-5-(6-o-tolyl-pyridin-2-ylmethylene)-thiazolidin-3-ylamino]-benzoic acid]
IC50: 11 to 40 µM

O=C(O)c1cccc(NN2C(=O)C(=Cc3ccc(-c4ccccc4Cl)o3)SC2=S)c1 [Compound D16, 3-{5-[1-[5-(2-chloro-phenyl)-furan-2-yl]-methylidene]-4-oxo-2-thioxo-thiazolidin-3-ylamino}-benzoic acid]
IC50: < 10 µM

O=C(O)c1cccc(NN2C(=O)C(=Cc3ccc(-c4cccc(C(F)(F)F)c4)o3)SC2=S)c1 [Compound D17, 3-{5-[1-[5-(3-trifluoromethyl-phenyl)-furan-2-yl]-methylidene]-4-oxo-2-thioxo-thiazolidin-3-ylamino}-benzoic acid]
IC50: < 10 µM

O=C(O)c1cccc(NN2C(=O)C(=Cc3ccc(-c4ccc(Cl)cc4)o3)SC2=S)c1 [Compound D18, 3-{5-[1-[5-(4-chloro-phenyl)-furan-2-yl]-methylidene]-4-oxo-2-thioxo-thiazolidin-3-ylamino}-benzoic acid]
IC50: < 10 µM

COc1ccc(-c2ccc(C=C3SC(=S)N(Nc4ccccc4C(=O)O)C3=O)o2)c(OC)c1 [Compound D19, 2-{5-[1-[5-(2,4-dimethoxy-phenyl)-furan-2-yl]-methylidene]-4-oxo-2-thioxo-thiazolidin-3-ylamino}-benzoic acid]
IC50: < 10 µM

O=C(O)c1ccc(NN2C(=O)C(=Cc3ccc(-c4ccccc4Cl)o3)SC2=S)cc1 [Compound D20, 4-{5-[5-(2-Chloro-phenyl)-furan-2-ylmethylene]-4-oxo-2-thioxo-thiazolidin-3-ylamino}-benzoic acid]
IC50: 11 to 40 µM

O=C(O)c1ccc(NN2C(=O)C(=Cc3ccc(-c4ccc(Cl)cc4)o3)SC2=S)cc1 [Compound D21, 4-{5-[5-(4-Chloro-phenyl)-furan-2-ylmethylene]-4-oxo-2-thioxo-thiazolidin-3-ylamino}-benzoic acid]
IC50: < 10 µM

O=C(O)c1ccccc1NN1C(=O)C(=Cc2ccc(-c3ccc4[nH]ccc4c3)o2)SC1=S [Compound D22, 2-{5-[5-(1H-Indol-5-yl)-furan-2-ylmethylene]-4-oxo-2-thioxo-thiazolidin-3-ylamino}-benzoic acid]
IC50: < 10 µM

Cc1cc(Cl)ccc1-c1ccc(C=C2SC(=S)N(Nc3ccccc3C(=O)O)C2=O)o1 [Compound D23, 2-{5-[1-[5-(4-chloro-2-methyl-phenyl)-furan-2-yl]-methylidene]-4-oxo-2-thioxo-thiazolidin-3-ylamino}-benzoic acid]
IC50: < 10 µM

Cc1cccc(C)c1-c1ccc(C=C2SC(=S)N(Nc3ccccc3C(=O)O)C2=O)o1 [Compound D24, 2-{5-[5-(2,6-Dimethyl-phenyl)-furan-2-ylmethylene]-4-oxo-2-thioxo-thiazolidin-3-ylamino}-benzoic acid]
IC50: < 10 µM

COc1cc(F)ccc1-c1ccc(C=C2SC(=S)N(Nc3ccccc3C(=O)O)C2=O)o1 [Compound D25, 2-{5-[1-[5-(4-fluoro-2-methoxy-phenyl)-furan-2-yl]-methylidene]-4-oxo-2-thioxo-thiazolidin-3-ylamino}-benzoic acid]
IC50: < 10 µM

COc1ccc(-c2ccc(C=C3SC(=S)N(Nc4ccccc4C(=O)O)C3=O)o2)cc1F [Compound D26, 2-{5-[1-[5-(3-fluoro-4-methoxy-phenyl)-furan-2-yl]-methylidene]-4-oxo-2-thioxo-thiazolidin-3-ylamino}-benzoic acid]
IC50: < 10 µM

O=C(O)c1ccccc1NN1C(=O)C(=Cc2ccc(-c3ccccc3OCc3ccccc3)o2)SC1=S [Compound D27, 2-{5-[1-[5-(2-benzyloxy-phenyl)-furan-2-yl]-methylidene]-4-oxo-2-thioxo-thiazolidin-3-ylamino}-benzoic acid]
IC50: 11 to 40 µM

Cc1cc(C)c(-c2ccc(C=C3SC(=S)N(Nc4ccccc4C(=O)O)C3=O)o2)c(C)c1 [Compound D28, 2-{4-Oxo-2-thioxo-5-[5-(2,4,6-trimethyl-phenyl)-furan-2-ylmethylene]-thiazolidin-3-ylamino}-benzoic acid]
IC50: < 10 µM
